In ChEMBL document CHEMBL1938312, “Design and combinatorial synthesis of a novel kinase-focused library using click chemistry-based fragment assembly” (Bioorg Med Chem Lett, 2012):
Calls of active or inactive are those of the source. The calls are words filed in the database; no cut-off is given here.

How the values were obtained:
[1] = target: Ephrin type-A receptor 2 (Homo sapiens) (UniProt P29317); assay: Inhibition of EPHA2 at 10 uM by colorimetric analysis
[2] = target: Insulin-like growth factor 1 receptor (Homo sapiens) (UniProt P08069); assay: Inhibition of IGF1R at 10 uM by colorimetric analysis
[3] = target: Vascular endothelial growth factor receptor 2 (Homo sapiens) (UniProt P35968); assay: Inhibition of KDR at 10 uM by colorimetric analysis
[4] = target: Hepatocyte growth factor receptor (Homo sapiens) (UniProt P08581); assay: Inhibition of MET at 10 uM by colorimetric analysis
Chain of Hepatocyte growth factor receptor (Homo sapiens) (P08581 whole entry): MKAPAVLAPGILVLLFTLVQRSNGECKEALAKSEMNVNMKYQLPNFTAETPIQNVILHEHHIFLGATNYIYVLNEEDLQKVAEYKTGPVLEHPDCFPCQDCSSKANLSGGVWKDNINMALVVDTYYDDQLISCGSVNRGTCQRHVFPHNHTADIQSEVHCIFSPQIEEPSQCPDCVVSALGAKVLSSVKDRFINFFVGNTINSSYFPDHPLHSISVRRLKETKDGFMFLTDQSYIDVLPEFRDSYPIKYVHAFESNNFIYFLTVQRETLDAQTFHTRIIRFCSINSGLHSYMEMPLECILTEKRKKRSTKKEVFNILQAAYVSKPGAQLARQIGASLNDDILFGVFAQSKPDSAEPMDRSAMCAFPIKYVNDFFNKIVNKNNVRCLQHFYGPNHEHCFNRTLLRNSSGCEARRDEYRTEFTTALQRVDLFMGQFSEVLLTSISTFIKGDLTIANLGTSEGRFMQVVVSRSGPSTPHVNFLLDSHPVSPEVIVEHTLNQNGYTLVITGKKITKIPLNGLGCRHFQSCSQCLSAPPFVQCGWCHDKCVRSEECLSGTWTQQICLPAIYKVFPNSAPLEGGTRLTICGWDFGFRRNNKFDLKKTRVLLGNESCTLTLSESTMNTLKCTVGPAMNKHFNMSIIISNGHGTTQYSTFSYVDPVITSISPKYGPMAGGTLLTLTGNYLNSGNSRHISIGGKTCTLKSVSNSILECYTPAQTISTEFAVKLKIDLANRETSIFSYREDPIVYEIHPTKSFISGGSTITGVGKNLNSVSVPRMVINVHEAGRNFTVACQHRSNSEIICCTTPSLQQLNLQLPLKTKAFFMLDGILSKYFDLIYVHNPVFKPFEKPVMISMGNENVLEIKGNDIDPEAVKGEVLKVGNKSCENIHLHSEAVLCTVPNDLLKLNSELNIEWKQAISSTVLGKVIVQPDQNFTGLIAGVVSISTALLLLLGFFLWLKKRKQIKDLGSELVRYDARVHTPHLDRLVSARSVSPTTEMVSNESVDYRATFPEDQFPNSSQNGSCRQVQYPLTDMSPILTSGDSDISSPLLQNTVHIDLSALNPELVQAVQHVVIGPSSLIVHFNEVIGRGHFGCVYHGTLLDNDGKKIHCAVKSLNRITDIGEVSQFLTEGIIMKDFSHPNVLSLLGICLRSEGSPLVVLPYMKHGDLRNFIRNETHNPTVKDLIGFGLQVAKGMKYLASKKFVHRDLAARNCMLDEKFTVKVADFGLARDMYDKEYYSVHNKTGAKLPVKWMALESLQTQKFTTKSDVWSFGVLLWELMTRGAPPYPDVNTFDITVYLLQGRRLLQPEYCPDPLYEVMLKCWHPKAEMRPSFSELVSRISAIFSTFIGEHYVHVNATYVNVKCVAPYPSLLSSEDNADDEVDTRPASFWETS

[5] = target: Protein-tyrosine kinase 2-beta (Homo sapiens) (UniProt Q14289); assay: Inhibition of PYK2 at 10 uM by colorimetric analysis
Chain of Protein-tyrosine kinase 2-beta (Homo sapiens) (Q14289 whole entry, looked up): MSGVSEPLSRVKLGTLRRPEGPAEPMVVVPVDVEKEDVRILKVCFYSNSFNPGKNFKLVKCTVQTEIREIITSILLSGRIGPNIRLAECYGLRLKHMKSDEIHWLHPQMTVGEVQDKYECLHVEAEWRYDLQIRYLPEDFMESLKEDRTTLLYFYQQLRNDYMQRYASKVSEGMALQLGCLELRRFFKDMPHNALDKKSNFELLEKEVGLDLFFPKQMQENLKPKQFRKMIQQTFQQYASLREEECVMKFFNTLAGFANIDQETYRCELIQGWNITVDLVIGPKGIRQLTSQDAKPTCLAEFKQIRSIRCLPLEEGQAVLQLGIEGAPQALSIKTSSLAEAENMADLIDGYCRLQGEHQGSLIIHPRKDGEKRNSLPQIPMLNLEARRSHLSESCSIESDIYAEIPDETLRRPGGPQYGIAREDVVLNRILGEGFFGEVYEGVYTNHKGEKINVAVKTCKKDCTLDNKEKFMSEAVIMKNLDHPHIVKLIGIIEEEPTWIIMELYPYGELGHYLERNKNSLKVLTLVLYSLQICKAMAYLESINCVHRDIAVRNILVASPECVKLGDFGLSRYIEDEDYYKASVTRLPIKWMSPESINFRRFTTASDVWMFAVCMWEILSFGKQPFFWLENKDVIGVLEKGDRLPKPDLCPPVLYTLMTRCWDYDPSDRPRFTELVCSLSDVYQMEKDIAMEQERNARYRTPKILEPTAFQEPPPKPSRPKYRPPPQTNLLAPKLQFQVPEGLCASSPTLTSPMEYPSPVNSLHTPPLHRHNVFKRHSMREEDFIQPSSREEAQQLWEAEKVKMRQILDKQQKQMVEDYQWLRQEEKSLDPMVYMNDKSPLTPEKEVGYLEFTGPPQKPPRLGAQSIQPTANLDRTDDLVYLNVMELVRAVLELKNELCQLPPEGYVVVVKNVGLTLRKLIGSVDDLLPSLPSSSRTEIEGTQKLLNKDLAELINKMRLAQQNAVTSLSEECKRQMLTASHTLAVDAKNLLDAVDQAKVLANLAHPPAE

[6] = target: Angiopoietin-1 receptor (Homo sapiens) (UniProt Q02763); assay: Inhibition of TIE2 at 10 uM by colorimetric analysis
Chain of Angiopoietin-1 receptor (Homo sapiens) (Q02763 whole entry): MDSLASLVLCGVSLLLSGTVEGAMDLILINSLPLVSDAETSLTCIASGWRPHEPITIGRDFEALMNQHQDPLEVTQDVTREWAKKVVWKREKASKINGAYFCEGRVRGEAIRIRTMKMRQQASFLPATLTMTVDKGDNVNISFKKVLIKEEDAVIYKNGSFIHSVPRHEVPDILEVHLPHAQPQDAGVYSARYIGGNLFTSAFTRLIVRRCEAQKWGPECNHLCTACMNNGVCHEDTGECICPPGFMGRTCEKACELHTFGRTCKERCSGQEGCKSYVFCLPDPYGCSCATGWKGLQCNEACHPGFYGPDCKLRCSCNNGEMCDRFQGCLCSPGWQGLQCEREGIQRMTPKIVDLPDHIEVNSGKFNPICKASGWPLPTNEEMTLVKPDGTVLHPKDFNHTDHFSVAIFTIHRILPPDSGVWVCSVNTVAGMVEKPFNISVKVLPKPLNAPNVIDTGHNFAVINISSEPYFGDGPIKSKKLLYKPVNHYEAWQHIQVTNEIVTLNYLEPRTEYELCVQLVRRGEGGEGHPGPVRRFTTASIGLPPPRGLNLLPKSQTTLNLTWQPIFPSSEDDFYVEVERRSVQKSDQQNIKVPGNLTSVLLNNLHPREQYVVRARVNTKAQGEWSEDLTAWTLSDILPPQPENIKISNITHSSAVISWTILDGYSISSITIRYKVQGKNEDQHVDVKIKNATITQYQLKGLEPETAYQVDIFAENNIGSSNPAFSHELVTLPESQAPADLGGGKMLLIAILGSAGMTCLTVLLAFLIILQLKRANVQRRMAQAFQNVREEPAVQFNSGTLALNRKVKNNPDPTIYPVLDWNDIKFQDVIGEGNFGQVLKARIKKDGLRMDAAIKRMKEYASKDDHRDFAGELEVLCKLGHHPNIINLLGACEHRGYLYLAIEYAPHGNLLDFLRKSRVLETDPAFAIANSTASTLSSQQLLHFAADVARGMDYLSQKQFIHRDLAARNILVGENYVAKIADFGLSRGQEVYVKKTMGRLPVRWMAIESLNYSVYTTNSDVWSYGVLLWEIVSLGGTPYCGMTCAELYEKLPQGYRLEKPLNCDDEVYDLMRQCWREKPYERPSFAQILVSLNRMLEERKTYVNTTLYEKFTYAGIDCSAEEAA

[7] = target: RAC-alpha serine/threonine-protein kinase (Homo sapiens) (UniProt P31749); assay: Inhibition of AKT1 at 10 uM by colorimetric analysis
[8] = target: 5'-AMP-activated protein kinase catalytic subunit alpha-1 (Homo sapiens) (UniProt Q13131); assay: Inhibition of AMPKalpha1 at 10 uM by colorimetric analysis
Chain of 5'-AMP-activated protein kinase catalytic subunit alpha-1 (Homo sapiens) (Q13131 whole entry, looked up): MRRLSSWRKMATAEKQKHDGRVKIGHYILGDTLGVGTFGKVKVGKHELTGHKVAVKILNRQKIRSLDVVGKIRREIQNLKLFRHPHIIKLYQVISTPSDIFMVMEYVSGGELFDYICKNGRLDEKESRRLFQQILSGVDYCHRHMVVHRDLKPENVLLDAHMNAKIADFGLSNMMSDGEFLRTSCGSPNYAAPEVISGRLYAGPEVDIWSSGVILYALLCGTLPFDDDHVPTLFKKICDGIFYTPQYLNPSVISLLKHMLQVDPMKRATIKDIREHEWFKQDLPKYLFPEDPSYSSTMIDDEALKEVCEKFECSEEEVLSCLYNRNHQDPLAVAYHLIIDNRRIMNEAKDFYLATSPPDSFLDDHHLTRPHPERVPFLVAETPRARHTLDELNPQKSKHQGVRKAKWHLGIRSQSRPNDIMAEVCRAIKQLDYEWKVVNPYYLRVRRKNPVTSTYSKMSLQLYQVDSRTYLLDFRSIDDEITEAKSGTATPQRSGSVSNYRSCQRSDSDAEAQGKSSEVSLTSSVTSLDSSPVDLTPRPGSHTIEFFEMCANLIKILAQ

[9] = target: Mitogen-activated protein kinase 1 (Homo sapiens) (UniProt P28482); assay: Inhibition of Erk2 at 10 uM by colorimetric analysis
Chain of Mitogen-activated protein kinase 1 (Homo sapiens) (P28482 whole entry): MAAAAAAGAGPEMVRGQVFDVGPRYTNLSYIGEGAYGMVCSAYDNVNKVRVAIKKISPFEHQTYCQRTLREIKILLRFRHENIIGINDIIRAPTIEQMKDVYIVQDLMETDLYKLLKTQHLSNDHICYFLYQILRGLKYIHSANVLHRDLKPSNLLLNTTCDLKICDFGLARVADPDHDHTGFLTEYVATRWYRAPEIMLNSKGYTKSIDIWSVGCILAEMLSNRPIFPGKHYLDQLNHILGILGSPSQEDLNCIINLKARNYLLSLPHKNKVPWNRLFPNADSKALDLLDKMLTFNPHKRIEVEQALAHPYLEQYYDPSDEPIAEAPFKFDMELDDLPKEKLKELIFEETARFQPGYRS

[10] = target: Mitogen-activated protein kinase 14 (Homo sapiens) (UniProt Q16539); assay: Inhibition of p38alpha at 10 uM by colorimetric analysis
Chain of Mitogen-activated protein kinase 14 (Homo sapiens) (Q16539 whole entry): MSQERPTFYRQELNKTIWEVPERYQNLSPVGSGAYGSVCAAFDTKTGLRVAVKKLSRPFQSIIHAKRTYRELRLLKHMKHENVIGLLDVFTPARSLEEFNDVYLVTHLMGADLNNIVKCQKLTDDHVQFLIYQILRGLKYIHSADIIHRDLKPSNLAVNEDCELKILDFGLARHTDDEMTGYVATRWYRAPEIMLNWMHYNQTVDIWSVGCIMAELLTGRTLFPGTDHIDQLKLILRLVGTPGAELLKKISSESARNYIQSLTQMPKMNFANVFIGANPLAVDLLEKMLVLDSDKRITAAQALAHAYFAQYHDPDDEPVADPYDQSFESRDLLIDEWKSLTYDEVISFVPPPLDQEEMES

[11] = target: T1, Serine/threonine-protein kinase D2 (Homo sapiens) (UniProt Q9BZL6); assay: Inhibition of PKD2 at 10 uM by colorimetric analysis
T1 sequence (whole entry): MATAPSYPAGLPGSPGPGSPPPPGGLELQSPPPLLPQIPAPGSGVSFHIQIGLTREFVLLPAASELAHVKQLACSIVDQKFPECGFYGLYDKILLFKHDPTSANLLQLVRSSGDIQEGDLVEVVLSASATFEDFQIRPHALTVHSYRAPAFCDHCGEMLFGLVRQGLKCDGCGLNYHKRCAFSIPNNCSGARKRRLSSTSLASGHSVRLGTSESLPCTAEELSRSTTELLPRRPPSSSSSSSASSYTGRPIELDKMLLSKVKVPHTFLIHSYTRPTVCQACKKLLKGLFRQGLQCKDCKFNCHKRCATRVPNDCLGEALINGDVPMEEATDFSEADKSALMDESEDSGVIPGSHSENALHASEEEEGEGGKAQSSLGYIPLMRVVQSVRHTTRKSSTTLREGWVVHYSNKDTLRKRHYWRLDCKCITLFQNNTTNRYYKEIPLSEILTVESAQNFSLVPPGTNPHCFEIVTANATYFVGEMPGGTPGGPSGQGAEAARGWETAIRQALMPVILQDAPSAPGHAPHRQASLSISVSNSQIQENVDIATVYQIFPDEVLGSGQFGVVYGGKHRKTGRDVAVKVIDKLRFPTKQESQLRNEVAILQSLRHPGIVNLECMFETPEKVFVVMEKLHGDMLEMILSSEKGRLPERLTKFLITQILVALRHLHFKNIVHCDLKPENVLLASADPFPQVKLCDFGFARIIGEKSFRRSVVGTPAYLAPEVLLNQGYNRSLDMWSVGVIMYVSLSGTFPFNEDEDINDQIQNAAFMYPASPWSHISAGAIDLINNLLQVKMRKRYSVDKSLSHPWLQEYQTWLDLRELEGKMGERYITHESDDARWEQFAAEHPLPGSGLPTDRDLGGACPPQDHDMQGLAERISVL

[12] = target: T2, Serine/threonine-protein kinase Sgk1 (Homo sapiens) (UniProt O00141); assay: Inhibition of SGK at 10 uM by colorimetric analysis
T2 sequence (whole entry): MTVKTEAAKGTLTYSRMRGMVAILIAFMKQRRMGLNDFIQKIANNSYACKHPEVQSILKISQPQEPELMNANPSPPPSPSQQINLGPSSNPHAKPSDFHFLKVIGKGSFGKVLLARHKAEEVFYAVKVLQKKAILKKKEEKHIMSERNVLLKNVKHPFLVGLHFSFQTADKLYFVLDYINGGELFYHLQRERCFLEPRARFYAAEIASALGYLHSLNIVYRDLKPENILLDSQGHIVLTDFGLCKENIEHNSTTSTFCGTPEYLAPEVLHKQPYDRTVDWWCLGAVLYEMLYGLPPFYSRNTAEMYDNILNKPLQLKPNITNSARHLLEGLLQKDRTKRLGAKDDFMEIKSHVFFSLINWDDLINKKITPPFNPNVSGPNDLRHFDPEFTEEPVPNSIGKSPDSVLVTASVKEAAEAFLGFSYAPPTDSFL

[13] = target: T3, Receptor-type tyrosine-protein kinase FLT3 (Homo sapiens, UniProt P36888); assay: Inhibition of FLT3 by colorimetric analysis
T3 sequence (P36888 whole entry): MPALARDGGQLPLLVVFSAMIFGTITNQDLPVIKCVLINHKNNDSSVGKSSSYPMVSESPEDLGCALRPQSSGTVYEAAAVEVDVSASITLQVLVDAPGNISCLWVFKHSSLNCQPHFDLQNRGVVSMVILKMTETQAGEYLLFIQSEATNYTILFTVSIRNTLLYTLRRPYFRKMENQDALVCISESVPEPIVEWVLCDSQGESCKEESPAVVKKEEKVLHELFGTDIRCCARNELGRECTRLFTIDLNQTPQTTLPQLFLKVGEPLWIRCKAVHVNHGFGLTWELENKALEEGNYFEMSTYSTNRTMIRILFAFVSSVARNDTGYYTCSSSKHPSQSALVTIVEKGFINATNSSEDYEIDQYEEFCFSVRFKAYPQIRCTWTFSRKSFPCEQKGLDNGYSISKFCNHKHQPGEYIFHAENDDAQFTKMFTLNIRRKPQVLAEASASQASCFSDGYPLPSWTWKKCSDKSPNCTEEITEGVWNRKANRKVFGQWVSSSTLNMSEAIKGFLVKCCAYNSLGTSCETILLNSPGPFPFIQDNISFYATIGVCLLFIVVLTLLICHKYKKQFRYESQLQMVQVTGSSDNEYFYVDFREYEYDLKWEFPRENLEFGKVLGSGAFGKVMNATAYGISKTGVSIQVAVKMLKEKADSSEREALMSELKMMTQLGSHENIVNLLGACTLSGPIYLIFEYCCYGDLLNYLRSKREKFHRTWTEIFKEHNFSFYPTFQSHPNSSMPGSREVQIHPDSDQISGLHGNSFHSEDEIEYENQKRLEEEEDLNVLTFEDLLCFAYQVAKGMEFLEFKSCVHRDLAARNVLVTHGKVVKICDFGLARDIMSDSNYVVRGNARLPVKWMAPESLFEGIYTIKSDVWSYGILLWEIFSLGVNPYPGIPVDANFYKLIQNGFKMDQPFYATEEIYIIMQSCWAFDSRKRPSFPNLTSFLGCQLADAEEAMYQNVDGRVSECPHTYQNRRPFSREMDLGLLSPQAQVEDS

inhibition [1] | inhibition [2] | inhibition [3] | inhibition [4] | inhibition [5] | inhibition [6] | inhibition [7] | inhibition [8] | inhibition [9] | inhibition [10] | inhibition [11] | inhibition [12] | IC50 [13] [µM] | SMILES
inactive | inactive | inactive | inactive | inactive | inactive | Active | Active | Active | Active | Active | Active | 4.4 | Clc1cccc(-n2nncc2-c2ccncc2)c1
inactive | inactive | inactive | inactive | inactive | inactive | Active | Active | Active | Active | Active | Active | 5.8 | Clc1ccc(-n2cc(-c3ccncc3)nn2)cc1
inactive | inactive | inactive | inactive | inactive | inactive | Active | Active | Active | Active | Active | Active | 1.7 | Clc1ccc(-n2nncc2-c2ccncc2)cc1
inactive | inactive | inactive | inactive | inactive | inactive | Active | Active | Active | Active | Active | Active | 10.5 | Clc1cccc(-n2cc(-c3ccncc3)nn2)c1
